Data on four molecules can be found in article PMC3117839, “Efficacy Study of Novel Diamidine Compounds in a Trypanosoma evansi Goat Model” (PLoS ONE, 2011).

Entries after “also recorded” stand apart in the source; their conditions may differ. Where two headings read alike, the source gives them in different places.

The subject of data set [1] is T. evansi. Put plainly: Curative efficacy in T. evansi experimentally infected goats (five month follow up, overall outcome). The class given is in vivo, Trypanosoma evansi (Canaries (Rubio) strain) in goats. The procedure:
Various diagnostic tests were used to evaluate the curative efficacy of the compounds, over a five month follow up period. The haematocrit centrifugation technique, was utilised as the standard parasitological test. The serological CATT/T. evansi test was performed to determine the presence or absence of antibodies. As a validating molecular based technique, a mini-exon 18S ribosomal PCR method designed for the detection of parasite DNA was also applied.
Fresh camel blood (400 µl) was collected from the jugular vein of a camel and 200 µl volumes inoculated (i.p.) into two mice. Once a parasitaemia had established, blood was collected via cardiac puncture and mixed with phosphate buffered saline with glucose (PSG) to provide the T. evansi suspension used for experimental goat infection. Thereafter, all 25 goats were experimentally infected intravenously (i.v.), with 10^6 parasites/goat.
Goats were divided into 8 groups, where group 1 contained four goats whilst group's 2 to 8 each contained three goats. […] All test compounds were administered intra-muscularly with four applications, on days 32, 34, 36 and 38 post-infection. Thereafter, follow up diagnostic methods were carried out for five months post treatment.

Data set [2] deals with T. evansi. Also noted: method as in PMID 20149544. Conditions: cited from earlier work; for in vitro IC50: 72 hour assay against T. evansi; for estimated MIC (minimal inhibitory concentration): estimated at least four times the IC50.
Data set [3] is described as follows: Plasma drug levels and pharmacokinetic parameters in T. evansi infected goats (HPLC/MS-MS). The class given is in vivo, goat. The procedure: In addition, blood samples were taken shortly before each compound injection was applied, to determine the trough levels. All samples were centrifuged at 3000 g for ten minutes. Subsequently, the plasma was removed, placed into sterile polypropylene cryotubes and stored away from light at −80°C. Mass spectrometry analysis was performed on all plasma samples using 25 µl aliquots. Calibrators were prepared separately for each analyte. Stock solutions of diminazene, DB 75, DB 867 and DB1192 were prepared in water. Curves were then prepared and analysed in duplicate, at both the beginning and the end of the analytical run. Concentrations of diminazene, DB 75, DB 867 and DB 1192 were determined by Liquid Chromatography/Triple Quadrupole Mass Spectrometry (HPLC/MS-MS). The pharmacokinetic parameters were determined using Microsoft® Excel software, with a functional set of add-ins applied, together with a graphical programme (GraphPad Prism 5, GraphPad Software Inc, USA). The compound plasma levels can be seen in Figure 1 for a) the standard drug, diminazene, b) DB 1192, c) DB 75 and d) DB 867. The plasma samples taken were analysed by HPLC/MS-MS to determine the drug concentrations (in ng/ml). From these values, the averages from the experimental goats in each group were calculated and drug concentration versus time curves were plotted with a line of best fit applied, corresponding to either the high or low compound dose tested.

[4] abbreviates: 1.25 mg/kg i.m. x4, five month follow up.
Setting [5] is: 2.5 mg/kg i.m. x4, five month follow up.
Where [6] appears, read: 1.25 mg/kg x4, 72 hours after final injection.
The mark [7] stands for this setting: 2.5 mg/kg x4, 72 hours after final injection.
Setting [8] is: 2.5 mg/kg x4, 192 hours after final injection.
Setting [9] is: goat plasma, four applications of 1.25 mg/kg i.m., average plasma levels.
Setting [10] is: goat plasma, four applications of 2.5 mg/kg i.m., average plasma levels.

For orientation: Cmax means the peak of the concentration-time curve. By MRT is commonly meant the average time that molecules of a dose stay in the body. Turning to `N=C(N)c1ccc(-c2ccc(-c3ccc(C(=N)N)cc3)o2)cc1` [DB 75], the curative efficacy result in data set [1] (setting [4]) was “Complete cure; also recorded: complete curative efficacy”; in data set [1] (setting [5]), “Complete curative efficacy”. Besides, the “in vitro IC50” value in data set [2] is 2.3 ng/mL. For the same molecule, in data set [2], the “estimated MIC (minimal inhibitory concentration)” value is 9.2 ng/mL. Moreover, the “concentration in goat plasma” value in data set [3] (setting [6]) is 2223 ng/mL; in data set [3] (1.25 mg/kg x4, 192 hours after final injection) it was “above 1500 ng/ml”; in data set [3] (setting [7]) it was 1923 ng/mL; in data set [3] (setting [8]), “above 1500 ng/ml”. Also, the results for the AUC in data set [3] (setting [9]) and in data set [3] (setting [10]) were 394305 and 358215, respectively. The Cmax in data set [3] (setting [9]) was not below 3115 ng/mL; in data set [3] (setting [10]), not below 2530 ng/mL. Moreover, the MRT in data set [3] (setting [9]) was 89.5 h; in data set [3] (setting [10]) it was 93.4 h. In addition, the T1/2 came to 279.3 h in data set [3] (setting [9]) and 473.7 h in data set [3] (setting [10]).

For `N=C(N)c1ccc(-c2ccc(-c3ccc(C(=N)N)nc3)o2)cc1` [DB 867], the “time to relapse post treatment” value in data set [1] (1.25 mg/kg i.m. x4) was 4.5 months. In data set [1] (setting [4]), the curative efficacy entry was “a relapse was seen during the final month of the follow up period”. The curative efficacy result in data set [1] (setting [5]) was “Complete curative efficacy; also recorded: cured; also recorded: curative efficacy was seen”. In addition, in data set [2], the “in vitro IC50” value is 1.7 ng/mL and the “estimated MIC (minimal inhibitory concentration)” value is 6.8 ng/mL. Besides, in data set [3] (setting [6]), the “concentration in goat plasma” value is on record as “above 1850 ng/ml”. The “concentration in goat plasma” value in data set [3] (setting [7]) is recorded as “above 1850 ng/ml”. Also, in data set [3] (setting [9]), the AUC was 381604, the maximum concentration (Cmax) was not below 3663 ng/mL, the MRT worked out at 87.9 h and the T1/2 stood at 202.5 h. In data set [3] (setting [10]), this molecule gave an AUC of 360895, a Cmax not below 3310 ng/mL, an MRT of 90.0 h and a T1/2 of 221.4 h.

Regarding `Cc1cc(C(=N)N)ccc1-c1cc2cc(C(=N)N)ccc2[nH]1` [DB 1192], in data set [1] (setting [4]), the curative efficacy entry is reported as “incapable of curing goats; also recorded: not effective”. In addition, in data set [1] (setting [5]), the curative efficacy result is listed as “incapable of curing goats; also recorded: not effective”. In data set [2], the “in vitro IC50” value is 10.5 ng/mL and the “estimated MIC (minimal inhibitory concentration)” value is given as “around 40 ng/ml”. Moreover, the “concentration in goat plasma” value in data set [3] (setting [6]) was 18 ng/mL. Moreover, the “concentration in goat plasma” value in data set [3] (setting [7]) was 32 ng/mL. The “concentration in goat plasma” value in data set [3] (setting [8]) was determined as 10 ng/mL. The “time until plasma level fell below the therapeutic threshold” value in data set [3] (both doses (2.5 and 1.25 mg/kg), post treatment) is not above 24 h. For the same molecule, in data set [3] (setting [9]), the AUC is 4809, the Cmax was not below 836 ng/mL, the mean residence time MRT was determined as 52.3 h and the T1/2 is 37.0 h. Further, in data set [3] (setting [10]), the AUC was 9861, the Cmax is not below 1563 ng/mL, the mean residence time (MRT) is 38.4 h and the T1/2 was found to be 30.5 h.

The term half-life denotes how long it takes for the measured level to halve. A high value points to slow decline. For `N=C(N)c1ccc(/N=N/Nc2ccc(C(=N)N)cc2)cc1` [Diminazene, Diminazene aceturate, reference compound], the curative efficacy result in data set [1] (5 mg/kg i.m. x4, five month follow up) is listed as “Complete curative efficacy”. Moreover, in data set [2], the “in vitro IC50” value is 12.5 ng/mL and the “estimated MIC (minimal inhibitory concentration)” value was 50 ng/mL. In addition, the half-life in data set [3] (Canarian, im, goat plasma, four applications of 5 mg/kg i.m., average plasma levels) is 59.1 h. In data set [3] (Canarian, im, goat plasma, four applications of 5 mg/kg i.m., average plasma levels, read-out: AUC), the AUC came out at 194 µg·h/mL. Also, the Cmax in data set [3] (Canarian, im, goat plasma, four applications of 5 mg/kg i.m., average plasma levels, read-out: Cmax) was not below 8640 ng/mL. Also, the MRT in data set [3] (Canarian, im, goat plasma, four applications of 5 mg/kg i.m., average plasma levels, read-out: MRT) stood at 70.7 h. Also, in data set [3] (goat, plasma, intramuscular, 5 mg/kg x4, 72 hours after the end of treatment), the concentration at 72 h was determined as 1110 ng/mL. The concentration at 192 h in data set [3] (goat, plasma, intramuscular, 5 mg/kg x4, 192 hours after final injection) is 568 ng/mL.
